Data: patent US20170274083A1, “NASAL COMPOSITION HAVING ANTI-VIRAL PROPERTIES” (SOFIBEL S.A.S.-A COMPANY ULTIMATELY OWNED BY CHURCH & …, priority 2014, published 2017)

Test system: HRV-A16
Assay: Anti-viral effect: inhibition of HRV-A16 replication (viral RNA)
Format: cell-based, human rhinovirus
Details: applied 1 h before infection; change in viral RNA; fully differentiated human airway epithelial cells
Procedure: The example 1 composition is tested according to the test of evaluation of the potential activity against HRV-A16 (a rhinovirus responsible for colds) on fully differentiated human airway epithelial cells culture. The compositions are first applied before infection for one hour and the replication is carried out for 4 hours. 3 rinsing steps with the formulations are carried out. The remaining is collected and the RNA is dosed after cell lysis. The same collecting step is carried out 24 hours after and the same dosing step is carried out. The percentage expressed the changes in viral RNA, resulting in the % of inhibition of HRV-A16 replication, leading to the anti-viral efficacy. The tested composition is tested against rupintrivir (a known antiviral compound, providing an almost complete response).

With `CCOC(=O)/C=C/[C@H](C[C@@H]1CCNC1=O)NC(=O)[C@@H](CC(=O)[C@@H](NC(=O)c1cc(C)on1)C(C)C)Cc1ccc(F)cc1` [Rupintrivir, rupintrivir] the “Inhibition (%) of HRV-A16 replication” value was 99.62%.
